The NIST ThermoML archive (doi:10.1021/je300632p)

Assay: xn = mol fraction of the nth substance listed
Conditions: 101 kPa, Liquid; for viscosity: Falling or rolling sphere viscometry; for mass density: Vibrating tube method

CCO [ethanol] + CCCCCO
x1 = 1
Conditions | mass density [kg/m3] | viscosity [mPa·s]
293.15 K | 790.13 | 1.151
298.15 K | 785.86 | 1.069
303.15 K | 781.56 | 0.973
308.15 K | 777.23 | 0.888
313.15 K | 772.86 | 0.813
318.15 K | 768.44 | 0.755
323.15 K | 763.97 | 0.684
328.15 K | 759.44 | 0.63

CCO [ethanol] + CCCCO
x1 = 1
Conditions | mass density [kg/m3] | viscosity [mPa·s]
293.15 K | 790.13 | 1.151
298.15 K | 785.86 | 1.069
303.15 K | 781.56 | 0.973
308.15 K | 777.23 | 0.888
313.15 K | 772.86 | 0.813
318.15 K | 768.44 | 0.755
323.15 K | 763.97 | 0.684
328.15 K | 759.44 | 0.63

CCO [ethanol] + CCCO
x1 = 1
Conditions | mass density [kg/m3] | viscosity [mPa·s]
293.15 K | 790.13 | 1.151
298.15 K | 785.86 | 1.069
303.15 K | 781.56 | 0.973
308.15 K | 777.23 | 0.888
313.15 K | 772.86 | 0.813
318.15 K | 768.44 | 0.755
323.15 K | 763.97 | 0.684
328.15 K | 759.44 | 0.63

CCCCCO [pentan-1-ol] + CCO
Conditions | mass density [kg/m3] | viscosity [mPa·s]
293.15 K, x2 = 0 | 814.16 | 3.939
293.15 K, x2 = 0.101 | 812.81 | 3.557
293.15 K, x2 = 0.2 | 811.19 | 3.218
293.15 K, x2 = 0.3 | 809.41 | 2.884
293.15 K, x2 = 0.401 | 807.59 | 2.584
293.15 K, x2 = 0.5 | 805.44 | 2.272
293.15 K, x2 = 0.6 | 803.06 | 2.025
293.15 K, x2 = 0.7 | 800.17 | 1.784
293.15 K, x2 = 0.801 | 797.32 | 1.551
293.15 K, x2 = 0.901 | 793.6 | 1.349
298.15 K, x2 = 0 | 810.52 | 3.412
298.15 K, x2 = 0.101 | 809.14 | 3.098
298.15 K, x2 = 0.2 | 807.5 | 2.818
298.15 K, x2 = 0.3 | 805.67 | 2.541
298.15 K, x2 = 0.401 | 803.79 | 2.288
298.15 K, x2 = 0.5 | 801.6 | 2.021
298.15 K, x2 = 0.6 | 799.16 | 1.81
298.15 K, x2 = 0.7 | 796.21 | 1.603
298.15 K, x2 = 0.801 | 793.25 | 1.399
298.15 K, x2 = 0.901 | 789.45 | 1.222
303.15 K, x2 = 0 | 806.84 | 2.971
303.15 K, x2 = 0.101 | 805.44 | 2.713
303.15 K, x2 = 0.2 | 803.76 | 2.48
303.15 K, x2 = 0.3 | 801.9 | 2.249
303.15 K, x2 = 0.401 | 799.97 | 2.034
303.15 K, x2 = 0.5 | 797.73 | 1.805
303.15 K, x2 = 0.6 | 795.24 | 1.624
303.15 K, x2 = 0.7 | 792.21 | 1.444
303.15 K, x2 = 0.801 | 789.17 | 1.265
303.15 K, x2 = 0.901 | 785.28 | 1.109
308.15 K, x2 = 0 | 803.14 | 2.599
308.15 K, x2 = 0.101 | 801.71 | 2.385
308.15 K, x2 = 0.2 | 800 | 2.192
308.15 K, x2 = 0.3 | 798.1 | 1.997
308.15 K, x2 = 0.401 | 796.12 | 1.814
308.15 K, x2 = 0.5 | 793.83 | 1.617
308.15 K, x2 = 0.6 | 791.27 | 1.461
308.15 K, x2 = 0.7 | 788.18 | 1.304
308.15 K, x2 = 0.801 | 785.06 | 1.147
308.15 K, x2 = 0.901 | 781.06 | 1.01
313.15 K, x2 = 0 | 799.42 | 2.283
313.15 K, x2 = 0.101 | 797.95 | 2.105
313.15 K, x2 = 0.2 | 796.2 | 1.943
313.15 K, x2 = 0.3 | 794.26 | 1.779
313.15 K, x2 = 0.401 | 792.24 | 1.623
313.15 K, x2 = 0.5 | 789.89 | 1.452
313.15 K, x2 = 0.6 | 787.27 | 1.317
313.15 K, x2 = 0.7 | 784.11 | 1.181
313.15 K, x2 = 0.801 | 780.91 | 1.042
313.15 K, x2 = 0.901 | 776.81 | 0.921
318.15 K, x2 = 0 | 795.64 | 2.014
318.15 K, x2 = 0.101 | 794.14 | 1.865
318.15 K, x2 = 0.2 | 792.36 | 1.728
318.15 K, x2 = 0.3 | 790.38 | 1.59
318.15 K, x2 = 0.401 | 788.31 | 1.455
318.15 K, x2 = 0.5 | 785.91 | 1.308
318.15 K, x2 = 0.6 | 783.23 | 1.192
318.15 K, x2 = 0.7 | 780 | 1.072
318.15 K, x2 = 0.801 | 776.71 | 0.949
318.15 K, x2 = 0.901 | 772.51 | 0.841
323.15 K, x2 = 0 | 791.84 | 1.784
323.15 K, x2 = 0.101 | 790.29 | 1.658
323.15 K, x2 = 0.2 | 788.48 | 1.543
323.15 K, x2 = 0.3 | 786.46 | 1.426
323.15 K, x2 = 0.401 | 784.34 | 1.31
323.15 K, x2 = 0.5 | 781.88 | 1.181
323.15 K, x2 = 0.6 | 779.14 | 1.08
323.15 K, x2 = 0.7 | 775.83 | 0.975
323.15 K, x2 = 0.801 | 772.46 | 0.866
323.15 K, x2 = 0.901 | 768.16 | 0.771
328.15 K, x2 = 0 | 787.98 | 1.586
328.15 K, x2 = 0.101 | 786.4 | 1.48
328.15 K, x2 = 0.2 | 784.55 | 1.382
328.15 K, x2 = 0.3 | 782.49 | 1.283
328.15 K, x2 = 0.401 | 780.32 | 1.182
328.15 K, x2 = 0.5 | 777.8 | 1.07
328.15 K, x2 = 0.6 | 775 | 0.982
328.15 K, x2 = 0.7 | 771.63 | 0.889
328.15 K, x2 = 0.801 | 768.16 | 0.792
328.15 K, x2 = 0.901 | 763.76 | 0.707
